This note sets out measurements from the OPERA property sets (Mansouri et al. 2018).

Settings in the first data set: not given
`FSC(F)(F)F` showed a boiling point of 148 °C. With `O=Cc1ccco1`, the boiling point turned out to be 162 °C, the log10 vapour pressure (mmHg) was found to be 0.344, the melting point was -38.1 °C and the ready biodegradability result was “readily biodegradable”.

`Cc1cc(-c2ccccc2)ccc1N` came in with a melting point of 43 °C.

As for `CCC(C)C=O` (centres undefined), the melting point was 91 °C. `CCOC(=O)N1CCN(C(=O)OCC)CC1` registered a boiling point of 315 °C and a melting point of 47 °C. For the compound `NS(=O)(=O)c1cc2c(cc1Cl)NC(CC1CCCC1)NS2(=O)=O` (centres undefined), the melting point is 238 °C.

Consider `Ic1cc(I)c(I)c(I)c1I`, for which the melting point is 172 °C.

In turn, `CCc1cccc(C)c1N(C(=O)CCl)C(C)COC` (centres undefined) had a log10 Henry constant (atm·m³/mol) of -8.05, a log10 Koc (L/kg) of 2.46, a log10 vapour pressure (mmHg) of -4.5 and a melting point of -51 °C.

Take `CC(=O)N1CCCCC1`: the boiling point was determined as 226 °C and the melting point was -13.4 °C.

For the compound `C=C(C)c1ccc(C)c2ccc(C=O)c-2c1`, the melting point was 58 °C. Compound `CC(C)CC1CCCC1` showed a boiling point of 148 °C and a melting point of -115 °C. For the compound `C1CSC1`, the boiling point came out at 95 °C, the log10 vapour pressure (mmHg) came out at 1.72 and the melting point was -73.2 °C. Compound `O=C(O)C(Cl)(Cl)Cl` showed a boiling point of 196 °C, a log10 Henry constant (atm·m³/mol) of -7.87, a log10 Koc (L/kg) of 0.3 and a log10 vapour pressure (mmHg) of -1.22. The melting point was found to be 57.5 °C and the ready biodegradability result is reported as “not readily biodegradable”. Compound `O=C1CCC(=O)O1` came in with a boiling point of 261 °C, a log10 vapour pressure (mmHg) of -2.82 and a melting point of 119 °C. Consider `COc1ccc2c(c1OC)C(=O)OC2`, for which the melting point amounted to 102 °C.

With `N=C(N)c1ccc(Oc2ccc(C(=N)N)cc2)cc1`, the melting point was 216 °C. Consider `Clc1cc(Cl)cc(-c2cc(Cl)c(Cl)c(Cl)c2Cl)c1`, for which the log10 Henry constant (atm·m³/mol) was -4.7.

As to `O=C1OC(c2ccc(O)cc2)(c2ccc(O)cc2)c2ccccc21`, the melting point was 262 °C and the ready biodegradability entry is “not readily biodegradable”.

`CC[C@]1(O)CC[C@H]2[C@@H]3CCC4=CCCC[C@@H]4[C@H]3CC[C@@]21C` gave a melting point of 77 °C. For `Cc1cccc(C)c1I`, the boiling point turned out to be 230 °C and the melting point worked out at 11.2 °C.

In the case of `CCCCOC(=O)N(C)SN(C)C(=O)Oc1cccc2c1OC(C)(C)C2`, the log10 vapour pressure (mmHg) was -7.53. `Oc1ccc(O)c(Cl)c1` showed a boiling point of 263 °C and a melting point of 108 °C. On the same counts, the results for `Cc1cc(Cl)ccc1Cl` are 200 °C and 5 °C. With `CCc1cc(C(N)=S)ccn1`, the melting point amounted to 163 °C. Regarding `Cc1c(C)c2c3ccccc3ccc2c2ccccc12`, the melting point came out at 129 °C. With `CCCCCCCCC=CCCCCCCCC(=O)N(C)CCS(=O)(=O)[O][Na]`, the ready biodegradability result is on record as “readily biodegradable”. The compound `Oc1c(F)c(F)c(F)c(F)c1F` yielded a boiling point of 146 °C, a log10 vapour pressure (mmHg) of 0.464 and a melting point of 32.8 °C. `O=[N+]([O-])c1ccc(Cl)cc1C(F)(F)F`: the ready biodegradability result is “not readily biodegradable”. Consider `CCCB(CCC)CCC`, for which the boiling point is 159 °C and the melting point is -56 °C.

Consider `O=C(O)CCCc1ccc(N(CCCl)CCCl)cc1`, for which the melting point stood at 65 °C. Take `CCc1nccnc1CC`: the boiling point was 181 °C. `CC1=C2[C@H]3OC(=O)[C@@H](C)[C@@H]3[C@@H](O)C[C@@]2(C)C=CC1=O` registered a melting point of 203 °C.

As for `Nc1c(Cl)c(Cl)nc(C(=O)O)c1Cl`, the log10 Koc (L/kg) amounted to 1.3, the log10 vapour pressure (mmHg) was -10.1, the melting point came out at 218 °C and the ready biodegradability result is given as “not readily biodegradable”. Compound `OCCN1CCN(CCO)CC1` showed a melting point of 135 °C.

`Clc1cc(Cl)c2ccccc2n1` came in with a boiling point of 281 °C and a melting point of 67.5 °C. With `BrCCCCCCBr`, the boiling point was 246 °C and the melting point is -2.3 °C. Take `O=C(O)/C=C/c1c[nH]cn1`: the melting point stood at 225 °C. On the same count and under the same terms, the value for `CC(CNC1CCCCC1)OC(=O)c1ccccc1.Cl` (centres undefined) was 178 °C; that for `CSc1ncnc2c1ncn2[C@@H]1O[C@H](CO)[C@@H](O)[C@H]1O` was 164 °C.

Consider `CCCCCC(=O)CCCCC`, for which the boiling point stood at 228 °C, the log10 vapour pressure (mmHg) is -1.3, the melting point is 14.5 °C and the ready biodegradability result is on record as “readily biodegradable”. `CCOC(=O)C(F)(F)F` returned a boiling point of 61 °C.

`FC(F)(F)CCCl` returned a boiling point of 45.1 °C and a melting point of -106 °C. `Nc1cc(Cl)ccc1O` yielded a melting point of 140 °C. In the case of `c1ccc2c(c1)OCO2`, the boiling point is 172 °C. On to `Cc1nccn1C`, for which the boiling point is 206 °C. In turn, `NCCc1ccc(O)cc1` showed a melting point of 164 °C. With `CN(C)c1ccc([N+](=O)[O-])cc1`, the log10 vapour pressure (mmHg) is -5.22 and the melting point was 164 °C. `c1ccc2c(c1)CCNC2` showed a boiling point of 232 °C. Turning to `Clc1cc2c(c(Cl)c1Cl)Oc1c(Cl)c(Cl)c(Cl)c(Cl)c1O2`, the log10 Koa stood at 11.4, the log10 vapour pressure (mmHg) is -10.2 and the melting point worked out at 264 °C.

Still in this data set, the particulars now being: fish.
Consider `Clc1ccc(-c2c(Cl)cc(Cl)c(Cl)c2Cl)c(Cl)c1Cl`, for which the log10 biotransformation half-life (days) was determined as 2.52.

In turn, `Clc1ccc(Cl)c(-c2ccc(Cl)c(Cl)c2Cl)c1` returned a log10 BCF of 5.38 and a log10 biotransformation half-life (days) of 2.31. `CCNc1ccc(C)cc1` displayed a log10 BCF of 0.61. Compound `CC(C)OP(=O)(OC(C)C)SCc1ccccc1` showed a log10 BCF of 0.94 and a log10 biotransformation half-life (days) of -1.2. In turn, `Clc1cc(Cl)c(Cl)c(-c2c(Cl)ccc(Cl)c2Cl)c1` displayed a log10 biotransformation half-life (days) of 2.32. In turn, `O=C(O)C(Cl)(Cl)Cl` displayed a log10 BCF of 0.23. Compound `O=[N+]([O-])c1ccc(Cl)cc1C(F)(F)F` returned a log10 BCF of 1.87 and a log10 biotransformation half-life (days) of -0.36. In the case of `Clc1cc(Cl)c(Oc2cc(Cl)c(Cl)c(Cl)c2Cl)cc1Cl`, the log10 biotransformation half-life (days) was 1.97.

For the compound `Clc1cc2c(c(Cl)c1Cl)Oc1c(Cl)c(Cl)c(Cl)c(Cl)c1O2`, the log10 BCF stood at 3.67 and the log10 biotransformation half-life (days) turned out to be 1.21.

As usually defined, the boiling point is the temperature at which the vapour pressure of the liquid equals the pressure above it. A word on the melting point: it is the temperature, or range, at which the solid turns liquid.
